The test system of assay [1] is Staphylococcus aureus. Nature of the assay: pathogen detection chip (differential drain current) with agar plating, Staphylococcus aureus. It is filed as cell-based. As to conditions: for blips/sub-blips identified in the electrical signal: first 8 hours of culturing; for biological sample resistant or sensitive to the interacting agent: from electrical signal pattern and CFU; for trend of number of colony-forming unit (CFU) from agar plating: over the course of culturing. An excerpt:
(§1) The drain voltage Vds may cause a drain current Ids to be measured as the electrical signal. In some embodiments, during the course of culturing the biological sample 207A, metabolites and/or the ions of the biological sample 207A generated due to the interaction of which with the interacting agents 207B may cause the front gate voltage Vgs-fg to change and thus the change of drain voltage Vds as well as the measured drain current Ids. By analyzing the electrical signal of the differential drain current ΔIds, several characteristics of the biological sample 207A can be determined within a short time frame and at a relative low sample concentration. In some embodiments, the sensor 20 may occupies a footprint of 5 μm by 5 μm. A bias of +1.8V can be applied to the first gate 209 and a bias of −0.5V can be applied to the second gate 209′ during the measurement of drain current Ids.
(§2) Two approaches can be used to measure the differential drain current ΔIds. One approach is to subtract the drain current Ids measured from a control group of the sensor 20 where no biological sample is introduced into the culturing medium 207 from the drain current Ids measured from an experimental group of the sensor 20 where biological sample is introduced into the culturing medium 207 during the course of culturing. The other approach is to subtract the initial drain current Ids (e.g. at t=0) from the drain current Ids measured from an experimental group of the sensor 20 where biological sample is introduced into the culturing medium 207 during the course of culturing. The latter approach can be adopted for real-time pathogen detection, and the former approach can be adopted in a more systematic study where the concentration of biological sample and the pH value of the culturing medium 207 can be recorded simultaneously.
(§3) To prepare the culturing medium, 200 μL of non-buffered LB broth having predetermined dosages (including zero dosage) of interacting agent was inoculated with predetermined concentration of Staphylococcus aureus and cultured at a temperature of 37° C. The sample was subjected to the pathogen detection using the pathogen detection chip and sensor described herein with a front gate voltage of +1.8V and a back gate voltage of −0.5V for drain current Ids measurement at predetermined time points (e.g., at each hour). The differential drain current ΔIds can be determined using the two approaches previously described, including (1) subtracting the drain current Ids measured from a control group from the drain current Ids measured from an experimental group during the course of culturing; and (2) subtracting the initial drain current Ids (e.g. at t=0) from the drain current Ids measured from an experimental group during the course of culturing. When the former approach is taken, the concentration of biological sample can be determined by agar plating under the same environmental condition.
Sample preparation and measurement condition can be referred to those in Example 2A and are not repeated here for brevity.

The subject of assay [2] is Pseudomonas aeruginosa. Nature of the assay: pathogen detection chip (differential drain current) with agar plating, Pseudomonas aeruginosa. In kind it is cell-based. As to conditions: for biological sample resistant or sensitive to the interacting agent: from electrical signal pattern and CFU; for trend of number of colony-forming unit (CFU) from agar plating: over the course of culturing.
From the text: as §1, §2
as §3, with “Pseudomonas aeruginosa” for “Staphylococcus aureus”
Sample preparation and measurement condition can be referred to those in Example 3A and are not repeated here for brevity. […] For example, in Example 3B, a differential drain current ΔIds of about 0.16 μA can be identified as a blip in the electrical signal.

For assay [3], the system named is Escherichia coli. Briefly: pathogen detection chip (differential drain current) with agar plating, Escherichia coli. In kind it is cell-based. As to conditions: for differential drain current ΔIds, local maximum: 2nd hour of culturing.
From the text: as §1, §2
as §3, with “Escherichia coli” for “Staphylococcus aureus”
Sample preparation and measurement condition can be referred to those in Example 4A and are not repeated here for brevity. […] For example, in Example 4B, a differential drain current ΔIds of greater than 0.07 μA (e.g., about 0.08 μA) can be identified as a blip in the electrical signal. In addition, a differential drain current ΔIds of about 0.04 μA can be identified as a sub-blip at the 6th hour. As previously described, electrical signal lower than 0.03 μA is not considered as a blip or a sub-blip in some of the embodiments.

In assay [4] the test system is Klebsiella pneumoniae. Briefly: pathogen detection chip (differential drain current) with agar plating, Klebsiella pneumoniae. It is filed as cell-based.
From the text: The drain voltage Vds may cause a drain current Ids to be measured as the electrical signal. In some embodiments, during the course of culturing the biological sample 207A, metabolites and/or the ions of the biological sample 207A generated due to the interaction of which with the interacting agents 207B may cause the front gate voltage Vgs-fg to change and thus the change of drain voltage Vds as well as the measured drain current Ids. By analyzing the electrical signal of the differential drain current ΔIds, several characteristics of the biological sample 207A can be determined within a short time frame and at a relative low sample concentration. […] A bias of +1.8V can be applied to the first gate 209 and a bias of −0.5V can be applied to the second gate 209′ during the measurement of drain current Ids.
To prepare the culturing medium, 200 μL of non-buffered LB broth having predetermined dosages (including zero dosage) of interacting agent was inoculated with predetermined concentration of Klebsiella pneumoniae and cultured at a temperature of 37° C. […]
The subject of assay [5] is Escherichia coli pku57. Briefly: microbe, parasite or virus in culture.
Method: To prepare the culturing medium, 200 μL of non-buffered LB broth having predetermined dosages (including zero dosage) of interacting agent was inoculated with predetermined concentration of Escherichia coli and cultured at a temperature of 37° C. The sample was subjected to the pathogen detection using the pathogen detection chip and sensor described herein with a front gate voltage of +1.8V and a back gate voltage of −0.5V for drain current Ids measurement at predetermined time points (e.g., at each hour). The differential drain current ΔIds can be determined using the two approaches previously described, including (1) subtracting the drain current Ids measured from a control group from the drain current Ids measured from an experimental group during the course of culturing; and (2) subtracting the initial drain current Ids (e.g. at t=0) from the drain current Ids measured from an experimental group during the course of culturing. When the former approach is taken, the concentration of biological sample can be determined by agar plating under the same environmental condition.
Assay [6] deals with Escherichia coli K12. Briefly: minimum inhibitory concentration (MIC) test. In kind it is cell-based.
[7] abbreviates: from electrical signal pattern and CFU.
The mark [8] stands for this setting: throughout the first 9 hour of culturing.

Converted amounts (≈) assume the structure as drawn.

Take `CC1(C)S[C@@H]2[C@H](NC(=O)[C@H](N)c3ccccc3)C(=O)N2[C@H]1C(=O)O` [Ampicillin]: in assay [1], the “blips/sub-blips identified in the electrical signal” value was “no blips or sub-blips (a differential drain current ΔIds showing local maximum lower than 0.03 μA is not identified as a blip or a sub-blip)”, the “biological sample resistant or sensitive to the interacting agent” value (shortened to “biological sample resistant or sensitive”) is reported as “sensitive” and the “trend of number of colony-forming unit (CFU) from agar plating” value (from here on “trend of number of colony-forming unit”) is on record as “monotonic decreasing”. For the same compound, the “differential drain current ΔIds” value in assay [1] (throughout the first 8 hour of culturing) is “lower than 0.03 μA”. Further, the “differential drain current ΔIds, blip” value in assay [2] (1st hour of culturing) was “about 0.16 μA”. For the same compound, in assay [2], the “biological sample resistant or sensitive” value is reported as “resistant” and the “trend of number of colony-forming unit” value is recorded as “monotonic increasing”.
Consider `CN[C@@H]1[C@H](O)[C@H](NC)[C@H]2O[C@@]3(O)C(=O)C[C@@H](C)O[C@H]3O[C@@H]2[C@H]1O` [Spectinomycin], for which the “differential drain current ΔIds, local maximum” value in assay [3] was “about 0.05 μA”. In addition, the “biological sample resistant or sensitive” value in assay [3] (setting [7]) is “sensitive”. The “trend of number of colony-forming unit” value in assay [3] (over the course of culturing) is recorded as “neither increasing or decreasing”. In addition, in assay [3] (setting [8]), the “differential drain current ΔIds” value is “lower than 0.07 μA”.
Regarding Gentamicin, the “differential drain current ΔIds, blip” value in assay [4] (3rd hour of culturing, LB broth, 37° C.) was “about 0.15 μA”. The “biological sample resistant or sensitive” value in assay [4] (setting [7]) was “resistant”; in assay [1] it was “resistant”; in assay [2], “sensitive”. In addition, the results for the “trend of number of colony-forming unit” value in assay [4] (over the course of culturing), in assay [1] and in assay [2] were “monotonic increasing”, “monotonic increasing” and “monotonic decreasing”, respectively. Moreover, the “blips/sub-blips identified in the electrical signal” value was “a blip at the 2nd hour and a sub-blip at the 5th hour” in assay [1]; “no blips or sub-blips (a differential drain current ΔIds showing local maximum lower than 0.03 μA is not identified as a blip or a sub-blip)” in assay [2] (first 9 hour of culturing). Besides, in assay [2] (setting [8]), the “differential drain current ΔIds” value is listed as “lower than 0.03 μA”.
Turning to `NC[C@H]1O[C@H](O[C@H]2[C@H](O)[C@@H](O[C@H]3O[C@H](CO)[C@@H](O)[C@H](N)[C@H]3O)[C@H](N)C[C@@H]2N)[C@H](O)[C@@H](O)[C@@H]1O` [Kanamycin], the MIC in assay [5] is under 50 µg/mL; in assay [6] it was 25 µg/mL (≈ 51.6 µM). In assay [3], the “differential drain current ΔIds, local maximum” value is “about 0.08 μA”. The “differential drain current ΔIds, sub-blip” value in assay [3] (6th hour of culturing) is listed as “about 0.04 μA”.

The record behind these values is US20210302366A1, “Method for Pathogen Detection” (priority 2020, published 2021).
